Measurements: patent EP0437336B1, “Biophosphoryl hydrazines and their use as pesticides” (priority 1990, dated 1991)
≈ marks a conversion by molar mass, not a printed value. Read-outs that look alike come from different tables or passages of the source.

Columns and labels:
[1] = system: southern corn rootworm, Diabrotica undecimpunctata howardi; assay: Biological Method A: Corn Rootworm Screening Test (treated non-aggressive soil); conditions: soil concentration giving 90% mortality, 10 days at 27°C
Two-Spotted Spider Mite = assay: Biological Method D: Foliar Insecticidal Activity Test, mite test; assay type: in vivo, Tetranychus urticae; conditions: foliar spray, kill after twenty-four hours; for LC50: Tetranychus urticae, 24 h, read-out: TSM LC50; for all read-outs here: key: I = Inactive at Rate Tested
Method: (§1) Biological Method D: Foliar Insecticidal Activity Test
(§2) In evaluating the foliar insecticidal activity of the compounds of this invention against insects and mites, the following test procedures were employed.
(§3) Not all compounds were tested at each of the several concentrations stated above. Test concentrations of a compound were selected as those most likely to differentiate dose response of a particular compound toward a particular test insect.
(§4) Initial evaluations were made on one or more of the following pests:
For the mite test, infested bean (Phaseolus limensis var. Woods Prolific) leaf discs [3.18 cm (1.25") in diameter] containing about 50 mites were placed in a Petri dish lid on a moistened piece of cotton. The leaves were then sprayed to thorough wetness with the test solution using a rotating turntable, held for twenty-four hours and then the percentage killed was determined.
(§5) The mortalities obtained in this manner were plotted on logarithmic probability paper.
(§6) The rotating turntable consists of a fixed, continuously operating spray nozzle under which targets are rotated at a fixed speed and distance. If the target is a Petri dish (such as for the bean beetle, armyworm, mite, or aphid tests), the distance from the nozzle is 38.1 cm (15 inches). If the target is a Mason jar (such as for the boll weevil test), the distance from the nozzle is 17.8 cm (7 inches). The nozzle is located 8 inches from the rotating shaft. The targets on individual platforms revolve around the shaft at 1 revolution per 20 seconds but only a brief portion of this time occurs in the spray path. Targets pass only once under the nozzle and then are removed to drying hoods.
(§7) The nozzle used is a 1/4 JCO Spraying Systems (Wheaton, Illinois) air atomizing nozzle equipped with a No. 2850 fluid cap and a No. 70 air cap. At the 68.95 x 10³ Pa gauge (10 psig) air pressure used and with liquid siphon feed, 1.89 ℓ/hr [0.5 GPH (gallons per hour)] are delivered in a round spray pattern with a 21 degree spray angle. Targets are misted with spray droplets to the point that the droplets coalesce to form a uniform thin film insufficient to drown test organisms.

Green Peach Aphid = assay: Biological Method D: Foliar Insecticidal Activity Test, aphid test; assay type: in vivo, Myzus persicae; conditions: foliar spray; kill after twenty-four hours; note: key: I = Inactive at Rate Tested
Method: as §1, §2, §3, §4
For the aphid test, infested broccoli (Brassica oleracea italica var. DiCicco) leaves containing about 50 aphids were placed in a Petri dish lid on a moistened piece of cotton. The leaves were then sprayed to thorough wetness with the test solution using a rotating turntable, held for twenty-four hours and then the percentage killed was determined.
as §5, §6, §7

Southern Armyworm = assay: Biological Method D: Foliar Insecticidal Activity Test, Southern Armyworm test; assay type: in vivo, Spodoptera eridania; conditions: foliar spray; for AW 48 hrs LC50: 48 hours after treatment; for AW 96 hrs LC50: 96 hours after treatment; for all read-outs here: key: I = Inactive at Rate Tested
Method: as §1, §2, §3, §4
(§8) For the Mexican Bean Beetle and Southern armyworm tests, individual lima bean (Phaseolus limeniss var. Woods' Prolific) leaves were placed on moistened pieces of filter paper in Petri dishes. The leaves were then sprayed with the test solution using a rotating turntable and allowed to dry. The dishes were then infested with 10 third instar larvae of either the Mexican Been Beetle or the Southern Armyworm. The dishes were then covered. Percent mortality was determined for each species and spray concentration at 48 and 96 hours after treatment.
as §5, §6, §7

Boll Weevil = assay: Biological Method D: Foliar Insecticidal Activity Test, boll weevil test; assay type: in vivo, Anthonomous grandis; conditions: spray into jar
Method: as §1, §2, §3, §4
For the boll weevil test, 10 adult weevils were placed in a 0.24 ℓ (0.5 pint) glass Mason jar containing a small cube of apple. The weevils were confined to the jar by fiberglass screen mesh secured by a screw-type rim cap. The jars were then sprayed with the test solution using a rotating turntable; directing the spray through the mesh into the jar. The percentage killed was determined after forty-eight and ninety six hours.
as §5, §6, §7

Mexican Bean Beetle = assay: Biological Method D: Foliar Insecticidal Activity Test, Mexican Bean Beetle test; assay type: in vivo, Epilachna varivestis; conditions: Epilachna varivestis, foliar spray
Method: as §1, §2, §3, §4, §8, §5, §6, §7

[2] = system: southern corn rootworm, Diabrotica undecimpunctata howardi; conditions: at-planting soil application
[3] = 48 hours after treatment, read-out: BB 48 hrs. LC50
[4] = 96 hours after treatment, read-out: BB 96 hrs LC50

| SMILES | primary nonagressive Method A crw LC90 [1] | LC50 (Two-Spotted Spider Mite) | GPA LC50 (Green Peach Aphid) | AW 48 hrs LC50 (Southern Armyworm) | AW 96 hrs LC50 (Southern Armyworm) | BW 48 hrs LC50 (Boll Weevil) | BW 96 hrs LC50 (Boll Weevil) | LC50 (Mexican Bean Beetle; [3]) | LC50 (Mexican Bean Beetle; [4]) | TSM LC50 (Two-Spotted Spider Mite) | secondary aggressive Method C crw LC50 ([2]; rated 17 days post-infestation) | secondary aggressive Method C crw LC50 ([2]; value in brackets) |
| --- | --- | --- | --- | --- | --- | --- | --- | --- | --- | --- | --- | --- |
| CCCOP(=S)(NNP(=S)(OCC)OC(C)(C)C(F)(F)F)OCC (stereo not shown) [Compound 69] | 1.1 ppm | 360 µg/mL (≈ 833 µM) | I | I | I | I | I | 500 µg/mL (≈ 1160 µM) | 62 µg/mL (≈ 143 µM) |  |  |  |
| CCCOP(=S)(NNP(=S)(OCC)OC(C)C)OCCC (stereo not shown) [Compound 82] | 0.7 ppm |  | I | I |  |  |  | 500 µg/mL (≈ 1320 µM) | 150 µg/mL (≈ 396 µM) | I | 0.95 kg/ha | 0.85 lb/acre |
| CCCOP(=S)(NNP(=S)(OCC)N1CCCCC1)OCCC (stereo not shown) [Compound 64] | 8.6 ppm |  | I | I | I | I | I | 740 µg/mL (≈ 1830 µM) | 740 µg/mL (≈ 1830 µM) | I |  |  |
| CCCCCOP(=S)(NNP(=S)(OCC)OCC)OCC (stereo not shown) [Compound 63] | 1.1 ppm |  | I | I | I | I | 740 ppm |  | 740 µg/mL (≈ 1960 µM) | I |  |  |
| CCOP(=S)(NNP(=S)(OCC)OC(C)CC)OC(C)CC (stereo not shown) [Compound 65, N-(O-ethyl O-secbutylthiophosphoryl) N′-(O-ethyl O-secbutylthiophosphoryl) hydrazine, reference compound] | 0.09 ppm | 245 µg/mL (≈ 624 µM) | I | I | I | I | I | 360 µg/mL (≈ 917 µM) | 62 µg/mL (≈ 158 µM) |  | 0.44 kg/ha | 0.39 lb/acre |
| CCCCNP(=S)(NNP(=S)(OCC)OCC)OCC (stereo not shown) [Compound 74] | 1.1 ppm |  | I | I | I | I | I | 740 µg/mL (≈ 2040 µM) | 380 µg/mL (≈ 1050 µM) | I | 1.03 kg/ha | 0.92 lb/acre |
| CCOP(=S)(NNP(=S)(OCC)OC(C)C)OC(C)C (stereo not shown) [Compound 67, reference compound] | 0.09 ppm | 150 µg/mL (≈ 412 µM) | I | I | I | I | I | 150 µg/mL (≈ 412 µM) | 62 µg/mL (≈ 170 µM) |  |  |  |
| CCOP(=S)(NCC(C)C)NNP(=S)(OCC)OCC (stereo not shown) [Compound 71] | 1.1 ppm |  | I | I | I | I | I | 150 µg/mL (≈ 413 µM) | 150 µg/mL (≈ 413 µM) | I |  |  |
| CCCN(C)P(=S)(NNP(=S)(OCC)OCC)OCC (stereo not shown) [Compound 76] | 1.1 ppm | 150 µg/mL (≈ 413 µM) | I | I | I | I | I | 150 µg/mL (≈ 413 µM) | 62 µg/mL (≈ 171 µM) |  |  |  |
| CCOP(=S)(NNP(=S)(OCC)N(C)CC)OCC (stereo not shown) [Compound 75] | 1.1 ppm | 150 µg/mL (≈ 429 µM) | I | I | I | I | I | 500 µg/mL (≈ 1430 µM) | 150 µg/mL (≈ 429 µM) |  |  |  |
| CCOP(=S)(NNP(=S)(OCC)OCC(F)(F)C(F)(F)F)OCC (stereo not shown) [Compound 78] | 1.1 ppm | 150 µg/mL (≈ 341 µM) | I | I | I | I | I | 360 µg/mL (≈ 818 µM) | 150 µg/mL (≈ 341 µM) |  |  |  |
| CCCOP(=S)(NNP(=S)(OCC)OC(C)(C(F)(F)F)C(F)(F)F)OCC (stereo not shown) [Compound 70] | 1.1 ppm |  | I | I | I | I | I | 500 µg/mL (≈ 1030 µM) | 45 µg/mL (≈ 92.5 µM) | I |  |  |
| CCCCCCOP(=S)(NNP(=S)(OCC)OCC)OCC (stereo not shown) [Compound 77] | 1.1 ppm |  | I | I | I | I | I | 150 µg/mL (≈ 382 µM) | 150 µg/mL (≈ 382 µM) | I |  |  |
| CCOP(=S)(NNP(=S)(OCC)OCC(C)C)OCC(C)C (stereo not shown) [Compound 66, reference compound] | 0.09 ppm |  | I | I | I | I | I |  | 150 µg/mL (≈ 382 µM) | I | ~1.91 kg/ha | ~1.7 lb/acre |
| CCCCCCOP(=S)(NNP(=S)(OCCC)OCCC)OCC (stereo not shown) [Compound 80] | 1.1 ppm |  | I | I | I | I | I |  |  | I |  |  |
| CCCOP(=S)(NNP(=S)(NCC(C)C)OCC)OCCC (stereo not shown) [Compound 81] | 1.1 ppm |  | I | I | I | I | I | 500 µg/mL (≈ 1280 µM) | 740 µg/mL (≈ 1890 µM) | I |  |  |
| CCCCCOP(=S)(NNP(=S)(OCCC)OCCC)OCC (stereo not shown) [Compound 79] | 1.1 ppm |  | I | I | I | I | I | 380 µg/mL (≈ 935 µM) | 62 µg/mL (≈ 153 µM) | I |  |  |
| CCOP(=S)(NNP(=S)(OCC(C)(C)C)OC(C)C)OCC (stereo not shown) [Compound 68] | 1.1 ppm | 520 µg/mL (≈ 1320 µM) | I | I | I | I | I | 500 µg/mL (≈ 1270 µM) | 150 µg/mL (≈ 382 µM) |  |  |  |
